COc1ccc(Cl)cc1C(=O)NCCc1ccc(S(=O)(=O)NC(=O)NC2CCCCC2)cc1
solubility (mole fraction)
Conditions	283.15 K	288.15 K	293.15 K	298.15 K	303.15 K	308.15 K	313.15 K	318.15 K	323.15 K
in MIBK	0.000198	0.000227	0.000276	0.000336	0.000426	0.000529	0.000655	0.000789	0.000908
in acetone	0.000471	0.000568	0.00069	0.000894	0.00109	0.00134	0.00171	0.00214	0.00261
in acetonitrile	5.25e-05	7.15e-05	9.85e-05	0.000131	0.000163	0.000225	0.000316	0.000418	0.000558
in ethanol	0.000108	0.00015	0.000188	0.000249	0.000316	0.000412	0.000591	0.000865	0.00116
in ethyl acetate	9.01e-05	0.000121	0.00015	0.000181	0.000226	0.00029	0.000375	0.000486	0.000627
in isopropanol	7.55e-05	8.89e-05	0.000126	0.000162	0.000207	0.000271	0.000401	0.000619	0.000934
in methanol	0.000124	0.000165	0.00021	0.000284	0.000355	0.000488	0.000695	0.00105	0.00143
in methyl acetate	0.000127	0.000164	0.000202	0.000246	0.000296	0.000372	0.000492	0.000629	0.000769
in n-butanol	0.000186	0.000223	0.000242	0.000284	0.000334	0.000445	0.000646	0.000922	0.00135
in n-propanol	0.0001	0.000125	0.000163	0.000225	0.000286	0.000381	0.000538	0.000729	0.000983
in sec-butanol	6.35e-05	7.97e-05	0.000104	0.000141	0.000184	0.000248	0.000365	0.000568	0.000887
